Molecules are shown by their SMILES.

The subject of this experiment is TNFα in lipopolysaccharide stimulated THP cells. Kind of experiment: Inhibition of TNF Production in THP Cells. It is filed as cell-based. To be noted: LPS (1 μg/mL) stimulated THP.1 cells, 18-24 hr incubation, human TNFα by ELISA. On the procedure: Inhibition of TNF Production in THP Cells
The inhibition of cytokine production can be observed by measuring inhibition of TNFα in lipopolysaccharide stimulated THP cells (for example, see W. Prichett et al., 1995, J. Inflammation, 45, 97). All cells and reagents were diluted in RPMI 1640 with phenol red and L-glutamine, supplemented with additional L-glutamine (total: 4 mM), penicillin and streptomycin (50 units/ml each) and fetal bovine serum (FBS, 3%) (GIBCO, all conc. final). Assay was performed under sterile conditions; only test compound preparation was nonsterile. Initial stock solutions were made in DMSO followed by dilution into RPMI 1640 2-fold higher than the desired final assay concentration. Confluent THP.1 cells (2×10^6 cells/mL, final conc.; […], Rockville, Md.) were added to 96 well polypropylene round bottomed culture plates (Costar 3790; sterile) containing 125 μL test compound (2 fold concentrated) or DMSO vehicle (controls, blanks). […] Cell mixture was allowed to preincubate for 30 min, 37° C., 5% CO2 prior to stimulation with lipopolysaccharide (LPS; 1 μg/mL final; Siga L-2630, from E. coli serotype 0111.B4; stored as 1 mg/mL stock in endotoxin screened distilled H2O at −80° C.). Blanks (unstimulated) received H2O vehicle; final incubation volume was 250 μl. Overnight incubation (18-24 hr) proceeded as described above. Assay was terminated by centrifuging plates 5 min, room temperature, 1600 rpm (400×g); supernatants were transferred to clean 96 well plates and stored −80° C. until analyzed for human TNFα by a commercially available ELISA kit (Biosource #KHC3015, Camarillo, Calif.). Data was analyzed by non-linear regression (Hill equation) to generate a dose response curve using SAS Software System (SAS institute, Inc., Cary, N.C.). The calculated IC50 value is the concentration of the test compound that caused a 50% decrease in the maximal TNFα production.
A general note: ELISA stands for enzyme-linked immunosorbent assay.
`Cc1ccc(C(C)(C)C)cc1NC(=O)Nc1ccc(Oc2ccnc(N)c2)c2ccccc12` [1-(5-tert-Butyl-2-methylphenyl)-3-[4-(2-aminopyridin-4-yl-oxy)naphthalen-1-yl]urea] gave an IC50 of under 10 µM. The result for `CC(C)(C)c1ccc(N2CCOCC2)c(NC(=O)Nc2ccc(OCCN3CCOCC3)c3ccccc23)c1` [1-(5-tert-Butyl-2-morpholin-4-yl-phenyl)-3-[4-(2-morpholin-4-yl-ethoxy)-naphthalen-1-yl]-urea] reads under 10 µM. For `CC(C)(C)c1cc(Br)c(NCCN2CCOCC2)c(NC(=O)Nc2ccc(OCCN3CCOCC3)c3ccccc23)c1` [1-[3-Bromo-5-tert-butyl-2-(2-morpholin-4-yl-ethylamino)-phenyl]-3-[4-(2-morpholin-4-yl-ethoxy)-naphthalen-1-yl]-urea], the IC50 was under 10 µM. The result for `COc1ccc(C(C)(C)C)cc1NC(=O)Nc1ccc(OCCN2CCOC(COc3ccccc3)C2)c2ccccc12` (stereo not shown) [1-[5-tert-butyl-2-methoxyphenyl]-3-[4-(2-(2-phenoxymethyl)morpholin-4-yl-ethoxy)-naphthalen-1-yl]-urea] reads under 10 µM. The result for `Cc1ccc(C(C)(C)C)cc1NC(=O)Nc1ccc(OCCN2CCOCC2)c2ccccc12` [1-[5-tert-butyl-2-methylphenyl]-3-[4-(2-morpholin-4-yl-ethoxy)-naphthalen-1-yl]-urea] reads under 10 µM; that for `Cc1ccc(C(C)(C)C)cc1NC(=O)Nc1ccc(Oc2cccnc2)c2ccccc12` [1-[5-tert-butyl-2-methylphenyl]-3-[4-(3-pyridinyloxy)-naphthalen-1-yl]-urea], under 10 µM. The result for `Cc1ccc(C(C)(C)C)cc1NC(=O)Nc1ccc(Oc2ccncc2)c2ccccc12` [1-[5-tert-butyl-2-methylphenyl]-3-[4-(4-pyridinyloxy)-naphthalen-1-yl]-urea] reads under 10 µM.

One may read the IC50 as the concentration needed to halve the response being measured. A lower IC50 goes with inhibition by little substance.
